Results as given in patent US12161663B2, “Compositions and methods for targeting cells” (Children's Medical Center Corporation, priority 2018, dated 2024).

Experiments:
[1] = system: BV2 microglia cell line; experiment: WST-1 assay of PMA-induced ROS production; assay type: cell-based
From the text: The WST-1 assay allows to measure the ROS produced by cell cultures.

[2] = cited from earlier work
[3] = target: T1, human recombinant TSPO (Homo sapiens, UniProt P30536); experiment: Microscale thermophoresis (MST) binding to isolated TSPO; settings: 5 nM red-tagged hTSPO
T1 construct: purchased LSBio
T1 sequence (P30536 whole entry): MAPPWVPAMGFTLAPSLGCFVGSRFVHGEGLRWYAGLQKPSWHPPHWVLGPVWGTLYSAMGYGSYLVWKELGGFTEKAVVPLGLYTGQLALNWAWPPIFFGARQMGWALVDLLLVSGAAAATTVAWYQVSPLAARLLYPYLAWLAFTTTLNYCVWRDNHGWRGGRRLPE
Procedure: The tests were performed by using isolated human recombinant TSPO (purchased from LSBio). The lyophilized protein was resuspended in Tris buffer and stored at −80° C. as per manufacturer instructions. Labelling with a deep-red fluorophore was performed by using the Monolith labeling kit-RED from Nanothemper. Briefly, 200 nM of hTSPO was resuspended in Tris/Sarkosyl 0.1% buffer and then mixed with a solution containing anti-His red-fluorophore at 100 nM concentration. After incubation for 30 minutes at RT, the mixture was centrifuged at 15000 g for 10 minutes at 4° C., to pellet any aggregate or precipitate. […] MST was then performed to assess binding.

For `c1ccc2c(c1)[I+]c1ccccc1-2` [DPI, diphenylene iodonium], the “effect on PMA-induced ROS” value ([1]; co-incubation with PMA) was “able to counteract the induction of ROS”.
In the case of `COc1cc(C(C)=O)cc(-c2cc(C(C)=O)cc(OC)c2O)c1O` [Diapocynin], the pKa [2] is listed as 7.4 and the “concentration inhibiting the PMA-induced increase of ROS” value ([1]; PMA 50 ng/ml, nominal concentration for encapsulated drug) is listed as at least 50 µM.
For `CCC(C)N(C)C(=O)c1cc2ccccc2c(-c2ccccc2Cl)n1` (stereo not drawn) [PK11195], the “change in MST profile of tagged hTSPO” value ([3]; ligand 250 μM) was “significant change in the MST profile”.
For `CCCCCCCCCCCCCC(=O)O[C@@H]1[C@@H](C)[C@@]2(O)[C@@H](C=C(CO)C[C@]3(O)C(=O)C(C)=C[C@@H]23)[C@@H]2C(C)(C)[C@]12OC(C)=O` [PMA, phorbol ester myristate acetate], the “increase of ROS production as compared to untreated control” value ([1]; 50 ng/ml for 6 hours) was 30-40%.
In the case of `CN1C(=O)CN=C(c2ccc(Cl)cc2)c2cc(Cl)ccc21` [Ro5-4864], the “change in MST profile of tagged hTSPO / binding” value ([3]; tested at 500 μM) is reported as “significant change in the MST profile”.
